The source of these data is PubChem BioAssay (NCI).

Where “and” joins values, the source holds several entries; their conditions need not be identical. Equal entries are not always repeated.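 Assay format: 96-well plates, 48-hour exposure. Here, GI50 denotes the concentration required for 50% inhibition of growth. Definition used: TGI = concentration required for complete inhibition of growth.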 Bounds are passed on as bounds.

Some test systems named below: 786-0 renal; COLO 205 colon; HCT-15 colon; K-562 leukemia; LOX IMVI melanoma; MDA-MB-435; SF-295 CNS; SR leukemia; U251 CNS; UO-31 renal.
Common to all, as to test: NCI tumour cell line growth inhibition, 48 h

In the case of `COc1cnc2c(c1)C(=O)c1c-2n(CCCN2CCCC2)c(=O)c2cc([N+](=O)[O-])ccc12`, the GI50 in the experiment with 786-0 renal is 0.0266 µM; with COLO 205 colon, 0.0354 µM; in the experiment with HCT-15 colon, 0.0616 µM; in the experiment with K-562 leukemia, 0.0226 µM; in the experiment on LOX IMVI melanoma, below 0.01 µM; in the experiment on MDA-MB-435, 0.0647 µM. In addition, the GI50 is below 0.01 µM in the experiment on SF-295 CNS, below 0.01 µM with SR leukemia, 0.0113 µM in the experiment with U251 CNS and below 0.01 µM with UO-31 renal. In addition, the TGI was determined as 0.152 µM with 786-0 renal; 13.8 µM in the experiment with COLO 205 colon; 4.05 µM in the experiment with HCT-15 colon; 1.9 µM in the experiment on K-562 leukemia; 0.112 µM in the experiment on LOX IMVI melanoma; 1.13 µM in the experiment on MDA-MB-435. The TGI in the experiment on SF-295 CNS is 0.215 µM; in the experiment on SR leukemia, 1.34 µM; in the experiment on U251 CNS, 1.03 µM; with UO-31 renal, 0.206 µM.
In the case of `COc1ccc(Br)cc1NC(=O)Nc1cccc2c1ccn2Cc1ccnc(N)c1`, the GI50 in the experiment with 786-0 renal is 8.57 µM and 8.88 µM; in the experiment on COLO 205 colon, 6.48 µM and 4.48 µM; in the experiment on HCT-15 colon, 2.44 µM and 2.94 µM; in the experiment on K-562 leukemia, 2.41 µM and 2.75 µM; in the experiment on LOX IMVI melanoma it was 1.83 µM and 2.18 µM; in the experiment with MDA-MB-435 it was 5.42 µM and 5.81 µM. Besides, the GI50 was 3.69 µM and 3.61 µM in the experiment with SF-295 CNS; 2.51 µM and 3.11 µM in the experiment with SR leukemia; 4.55 µM and 5.4 µM with U251 CNS; 9.78 µM and 3.12 µM with UO-31 renal. Also, the TGI in the experiment on 786-0 renal was 27.5 µM and > 10 µM; in the experiment with COLO 205 colon, 18.2 µM and > 10 µM; in the experiment with HCT-15 colon, 6.31 µM and > 10 µM; with K-562 leukemia it was 8.38 µM and > 10 µM; with LOX IMVI melanoma, 3.66 µM and 5.14 µM; with MDA-MB-435, 23.5 µM and > 10 µM. In addition, the TGI is 17.6 µM and > 10 µM with SF-295 CNS; 15.5 µM and > 10 µM in the experiment with SR leukemia; 15.6 µM and > 10 µM with U251 CNS; 26.3 µM and > 10 µM in the experiment with UO-31 renal.
Turning to `CCOC(=O)C(=Cc1ccc(C#N)cc1)C(=O)OCC`, the GI50 was 1.84 µM with 786-0 renal; 1.87 µM in the experiment on COLO 205 colon; 2.03 µM with HCT-15 colon; 3.44 µM in the experiment on K-562 leukemia; 1.8 µM in the experiment on LOX IMVI melanoma; 1.98 µM in the experiment with MDA-MB-435. Moreover, the GI50 in the experiment on SF-295 CNS was 8.56 µM; in the experiment with SR leukemia, 1.31 µM; in the experiment on U251 CNS, 2.15 µM; with UO-31 renal, 1.65 µM. Moreover, the TGI was 3.88 µM with 786-0 renal; 3.83 µM in the experiment with COLO 205 colon; 6.17 µM in the experiment on HCT-15 colon; above 100 µM in the experiment on K-562 leukemia; 3.87 µM with LOX IMVI melanoma; 4.79 µM in the experiment on MDA-MB-435. For the same molecule, the TGI in the experiment with SF-295 CNS was 21.2 µM; with SR leukemia, above 100 µM; in the experiment on U251 CNS, 4.89 µM; with UO-31 renal, 3.49 µM.
Take `COc1nc(N)nc2c1ncn2C1CC(O)C(CO)O1` (stereo not given): the TGI in the experiment with 786-0 renal, in the experiment on COLO 205 colon, in the experiment with HCT-15 colon, in the experiment on K-562 leukemia, in the experiment on LOX IMVI melanoma and with MDA-MB-435 was above 100 µM in each case. Further, the TGI in the experiment with SF-295 CNS, in the experiment on SR leukemia, with U251 CNS and in the experiment with UO-31 renal was above 100 µM each time.
